Like-named read-outs stand apart in the source and are kept apart here. Values belong to the compound of their own block, whether it stands above or below them.
Tests used:
[1] = test system: sebocytes of the SEBO662AR line; test: Overproduction of lipids by testosterone-stimulated sebocytes (Bodipy lipid droplet imaging, standardized by nuclei count); assay type: cell-based
From the text: The imbalance in the cutaneous microbiota occurs in particular when the proliferation of Propionibacterium acnes is observed. In this case also, Propionibacterium acnes induces inflammation of the skin, on the one hand by inducing the overproduction of lipids by sebocytes and, on the other hand, by producing a lipase which converts triglycerides into free fatty acids, which are irritating and chemotactic for neutrophils.
The effect of the composition (C1A) on the overproduction of lipids was studied on sebocytes of the SEBO662AR line (Bioalternatives line) sensitive to stimuli, such as testosterone, to produce lipids.
The sebocytes were first of all treated for 4 hours with the composition to be tested (or a positive reference). The testosterone was then added for 7 days to the culture medium, with renewal of the treatments and of the stimulation after 3 days. The formation of lipid droplets was detected by imaging using the Bodipy® fluorescent probe and the results were standardized by counting the nuclei with Hoechst staining.
The values are expressed as means+/−sem [standard error of the mean=standard deviation/root (number of values)].
% stimulation=100×[mean (cells+treatment)/mean (cells stimulated with testosterone)]
% inhibition=100×[mean (cells+treatment)−mean (cells stimulated with testosterone)/mean (untreated cells)−mean (cells stimulated with testosterone)]

lipase = test: Antilipase activity, in tubo method (1,2-diglyceride to glycerol, absorbance at 570 nm); assay type: biochemical; details: for % inhibition of the lipase: Table 11 experiment
Method: This involves studying the ability of a composition to […] and regulate the activity of the lipase enzyme by an in tubo method, said enzyme having an inflammatory action.
The samples in the evaluation test are placed in tubo in the presence of lipase and 1,2-diglyceride and the absorbance of the samples is measured with a spectrophotometer at the wavelength 570 nm as soon as they are prepared and then after 60 minutes of incubation at 37° C., under the same spectral conditions. By virtue of a range of glycerol, the lipase activity of the samples can be calculated, as well as the percentage of inhibition, according to the following formulae:
Lipase activity=(amount of glycerol formed between 0 and 60 minutes)/(60 minutes×sample volume)
Percentage of inhibition=100×[(lipase activity of the control group)−(lipase activity of the test product)]/(lipase activity of the control group).

[2] = Table 9, 1 nM testosterone, 0.006% compound
[3] = Table 9, 1 nM testosterone, 0.012% compound

Lipase activity (lipase; Table 11, 0.00012% by weight, control 4.72): 4.65 +/− 0.03 mU/ml | Lipase activity (lipase; Table 11, 0.00024% by weight, control 4.72): 4.15 +/− 0.03 mU/ml | Lipase activity (lipase; Table 11, 0.0006% by weight, control 4.72): 2.16 +/− 0.07 mU/ml | Lipase activity (lipase; Table 11, 0.0012% by weight, control 4.72): 1.02 +/− 0.01 mU/ml | % inhibition of the lipase (lipase; 0.0006% by weight): 54% | % inhibition of the lipase (lipase; 0.0012% by weight): 78%
Structure (SMILES): O=C(O)CC(O)C(=O)OC1(C(=O)O)CC(OC(=O)C=Cc2ccc(O)c(O)c2)C(OC(=O)C=Cc2ccc(O)c(O)c2)C(OC(=O)C=Cc2ccc(O)c(O)c2)C1 (stereo not drawn) [Compound of formula (Ia), 1-O-Maloyl-3,4,5-tri-O-caffeoylquinic acid]
Lipids, % change vs testosterone-stimulated cells ([1]; Table 9, 1 nM testosterone, 0.0012% compound): 21 | Lipids, % change vs testosterone-stimulated cells [1, 2]: −34 | Lipids, % inhibition [1, 2]: 38% | Lipids, % change vs testosterone-stimulated cells [1, 3]: −29 | Lipids, % inhibition [1, 3]: 32%

Lipase activity (lipase; Table 10, product at 1% by weight, 60 minutes at 37° C., control 4.21): 6.40 +/− 0.05 mU/m1
Structure (SMILES): CC(O)CO (stereo not drawn) [Propylene Glycol]

Lipase activity (lipase; Table 10, positive reference, concentration not given, 60 minutes at 37° C., control 4.21): 2.11 +/− 0.01 mU/m1 | Lipase activity (lipase; Table 11, positive reference, concentration not given, control 4.72): 1.36 +/− 0.01 mU/ml
Structure (SMILES): O=C1O[C@H]([C@@H](O)CO)C(O)=C1O [Vitamin C, reference compound]

Structure (SMILES): C[C@]12C=CC(=O)N[C@@H]1CC[C@@H]1[C@@H]2CC[C@]2(C)[C@@H](C(=O)Nc3cc(C(F)(F)F)ccc3C(F)(F)F)CC[C@@H]12 [dutasteride, reference compound]
inhibition at 1 µM ([1]; Table 8, cells stimulated with 1 nM testosterone, 1 μM dutasteride, read-out: Lipids (fluorescence intensity)/number of cells, % inhibition): 113% | Lipids (fluorescence intensity)/number of cells, % stimulation ([1]; Table 8, cells stimulated with 1 nM testosterone, 1 μM dutasteride, stimulated untreated cells = 100): 22% | Lipids, % change vs testosterone-stimulated cells ([1]; Table 9, 1 nM testosterone, 1 μM dutasteride): −82 | inhibition at 1 µM ([1]; Table 9, 1 nM testosterone, 1 μM dutasteride, read-out: Lipids, % inhibition): 91%

Source: patent US20210030650A1, “USE OF A NOVEL COMPOSITION FOR PREVENTING OR SLOWING DOWN THE APPEARANCE OF UNSIGHTLY SIGNS RELATING TO THE PRESENCE OF EXCESS SEBUM” (SOCIETE D'EXPLOITATION DE PRODUITS POUR LES INDUSTRIES …, priority 2018, published 2021)
